Measurements from patent US11028089B2, “Pyrimido-diazepinone kinase scaffold compounds and methods of treating DCLK1/2-mediated disorders” (DANA-FARBER CANCER INSTITUTE, INC., priority 2016, dated 2021).

Molecular target: T1, recombinant DCLK1 (Homo sapiens, UniProt O15075)
T1 construct: N-terminally 6-His tagged human DCLK1 residues G351-H689 was prepared; 6-His (N); made in house; host or cells: E. coli BL21(DE3), co-transformed with lambda phosphatase
T1 sequence (O15075 351-689 isoform O15075-2): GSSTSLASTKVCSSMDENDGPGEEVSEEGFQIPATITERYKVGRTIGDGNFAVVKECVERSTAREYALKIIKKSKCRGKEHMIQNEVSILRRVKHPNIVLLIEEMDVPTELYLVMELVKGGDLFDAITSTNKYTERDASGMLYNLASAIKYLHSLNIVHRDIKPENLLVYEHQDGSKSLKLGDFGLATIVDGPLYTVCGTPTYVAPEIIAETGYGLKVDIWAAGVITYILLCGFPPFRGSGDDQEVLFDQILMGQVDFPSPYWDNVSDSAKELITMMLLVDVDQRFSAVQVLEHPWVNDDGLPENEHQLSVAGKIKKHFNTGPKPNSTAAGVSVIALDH
Assay: DCLK1 mobility shift assay (gel shift assay)
Format: biochemical
Settings: 30 nM recombinant DCLK1, 100 μM ATP, 1 μM FAM-labeled peptide substrate, two hours at room temperature, 8-point dose-response
Protocol: The DNA construct consisting of N-terminally 6-His tagged human DCLK1 residues G351-H689 was prepared. Thus prepared plasmid was co-transformed with lambda phosphatase under chloramphenicol selection into BL21(DE3) E. coli cells.
Protein expression was induced from the DCLK1 plasmid with 0.6 mM IPTG and expression was allowed to continue for about 10 hours at a temperature of 18° C. Cells was harvested by centrifugation and resuspended in Lysis buffer with protease inhibitors (1 mM Benzamidine and 1 mM PMSF). Lysis was performed by passing 3 times through a homogenizer. Lysate was centrifuged at 20K for 1 hour at a temperature of 4° C. and the supernatant was filtered through a 0.2 micron membrane. Protein was loaded on nickel (Ni)-NTA resin, washed with Wash buffers, and eluted with 300 mM imidazole buffer. […]
DCLK1 kinase activity was measured in vitro using an electrophoretic mobility shift assay. […] Substrate and product peptides present in each sample were electrophoretically separated and detected using 12-channel LabChip3000 microfluidic capillary electrophoresis instrument (Caliper Life Sciences, Waltham Mass., USA). The change in the relative fluorescence intensities of substrate and product peaks (reflecting enzyme activity) was measured. Capillary electrophoregrams were analyzed using HTS Well Analyzer software (Caliper Life Sciences, Waltham Mass., USA).

| SMILES | IC50 against DCLK1 compared with the positive control (FIG. 2) |
| --- | --- |
| COc1cc(N2CCN(C)CC2)ccc1Nc1ncc2c(n1)N(C)c1ccccc1C(=O)N2CC(F)(F)F [Compound 2, 2-((2-methoxy-4-(4-methylpiperazin-1-yl)phenyl)amino)-11-methyl-5-(2,2,2-trifluoroethyl)-5,11-dihydro-6H-benzo[e]pyrimido[5,4-b][1,4]diazepin-6-one] | substantially decreased from the IC50 value of the positive control |
| COc1cc(C(=O)NC2CCN(C)CC2)ccc1Nc1ncc2c(n1)N(C)c1ccccc1C(=O)N2CC(F)(F)F [Compound 8, 3-methoxy-4-((11-methyl-6-oxo-5-(2,2,2-trifluoroethyl)-6,11-dihydro-5H-benzo[e]pyrimido[5,4-b][1,4]diazepin-2-yl)amino)-N-(1-methylpiperidin-4-yl)benzamide] | substantially decreased from the IC50 value of the positive control |
